Source: patent publication US20020147136A1, “Compounds for targeting endothelial cells, compositions containing the same and methods for their use” (priority 2000, published 2002)

Experiments:
[1] = tested on: Human Umbilical Vein Endothelial Cells (HUVECS)
Procedure: The ability of compositions comprising a TKPPR monomer and a TKPPR multimer to inhibit ^125I-VEGF binding to endothelial cells was evaluated using HUVECs.

[2] = tested on: NP-1/Fc; test: Inhibition of 125I-VEGF165 binding to NP-1/Fc
Procedure: The ability of various compositions comprising TKPPR monomers or multimers to inhibit ^125I-VEGF binding to NP-1 was evaluated using NP-1/Fc. Competitive binding assays with microtiter plates coated with NP-1/Fc (R&D sytems) were performed using ^125I-VEGF165 as radioligand (Amersham Pharmacia Biotech Cat. No. IM274, Specific Activity: 1000-2500 Ci/mmol). […] Plates (Nunc MaxiSorp white opaque Microtiter plate [C-bottom, 437796]) were coated by incubating the wells with 75 µl of a solution containing 3 μlg/mL NP-1/Fc in D-PBS/0.1% NaAzide overnight at 4° C. after covering with sealing tape (Dynex, VWR Cat. No. 62402-931). […] All points were derived from triplicate wells, and for each set of replicates in NP-1/Fc-coated wells, a companion set in the absence of the receptor was included. For competitive binding, a series of unlabelled competitor concentrations were prepared in a 250 pM solution of ^1251-VEGF165 in assay buffer Solutions were added to 1.2 ml polypropylene tubes conforming to the microtiter format (Costar Cat. No. 29442-602), and transferred from these tubes to microtiter wells, without further dilution, using a multichannel pipettor. After addition of the appropriate solutions, microtiter plates were incubated at 4° C. for 2 hours. […] The plates were blotted dry and 25 μl deionized water and 100 μl scintillation fluid (Optiphase SuperMix, Wallac) were added to each well. Plates were agitated using a Plate Shaker (Hyperion, Cat. No. 4030-100F) for 3-5 minutes and were then counted using a Microplate Scintillation Counter (Wallac Microbeta Trilux) A set of serially diluted 125I-VEGF165 standard wells ranging from 200 to 0.04 pM were included with each experiment to aid in quantification of the amount of radiolabel bound.

[3] = target: Neuropilin-1/Fc; test: Fluorescence polarization binding to NP-1/Fc; conditions: Oregon Green-labeled ligand 5-20 nM, 37° C., D-PBS pH 7.4; different experiments
Procedure: The ability of various compositions comprising TKPPR monomers or multimers to bind to NP-1/Fc and KDR-Fc was evaluated using FP. The binding studies of various Oregon Green (OG)-labeled compounds comprising TKPPR monomers or multimers and related compounds with Neuropilin-1/Fc, and KDR-Fc (both from R&D Systems), were carried out at 37° C. in D-PBS buffer (pH 7.4). FP values (mP) for each substrate was measured by titrating the ligand (5-20 nM) with receptor protein using a Jolley Research and Consulting FPM-1 fluorescence Polarization analyzer. In each of these experiments the observed polarization values were plotted against receptor concentration. The mP values for 100% binding of tracer labeled ligand to receptor protein was calculated using the software provided by the vendor.

[4] = target: T1, KDR-Fc (Homo sapiens, UniProt P35968); test: Inhibition of 125I-VEGF165 binding to KDR-Fc; conditions: at the highest concentrations tested
T1 construct: purchased R&D Systems
T1 sequence (P35968 with tags, fused parts or gaps limits assumed): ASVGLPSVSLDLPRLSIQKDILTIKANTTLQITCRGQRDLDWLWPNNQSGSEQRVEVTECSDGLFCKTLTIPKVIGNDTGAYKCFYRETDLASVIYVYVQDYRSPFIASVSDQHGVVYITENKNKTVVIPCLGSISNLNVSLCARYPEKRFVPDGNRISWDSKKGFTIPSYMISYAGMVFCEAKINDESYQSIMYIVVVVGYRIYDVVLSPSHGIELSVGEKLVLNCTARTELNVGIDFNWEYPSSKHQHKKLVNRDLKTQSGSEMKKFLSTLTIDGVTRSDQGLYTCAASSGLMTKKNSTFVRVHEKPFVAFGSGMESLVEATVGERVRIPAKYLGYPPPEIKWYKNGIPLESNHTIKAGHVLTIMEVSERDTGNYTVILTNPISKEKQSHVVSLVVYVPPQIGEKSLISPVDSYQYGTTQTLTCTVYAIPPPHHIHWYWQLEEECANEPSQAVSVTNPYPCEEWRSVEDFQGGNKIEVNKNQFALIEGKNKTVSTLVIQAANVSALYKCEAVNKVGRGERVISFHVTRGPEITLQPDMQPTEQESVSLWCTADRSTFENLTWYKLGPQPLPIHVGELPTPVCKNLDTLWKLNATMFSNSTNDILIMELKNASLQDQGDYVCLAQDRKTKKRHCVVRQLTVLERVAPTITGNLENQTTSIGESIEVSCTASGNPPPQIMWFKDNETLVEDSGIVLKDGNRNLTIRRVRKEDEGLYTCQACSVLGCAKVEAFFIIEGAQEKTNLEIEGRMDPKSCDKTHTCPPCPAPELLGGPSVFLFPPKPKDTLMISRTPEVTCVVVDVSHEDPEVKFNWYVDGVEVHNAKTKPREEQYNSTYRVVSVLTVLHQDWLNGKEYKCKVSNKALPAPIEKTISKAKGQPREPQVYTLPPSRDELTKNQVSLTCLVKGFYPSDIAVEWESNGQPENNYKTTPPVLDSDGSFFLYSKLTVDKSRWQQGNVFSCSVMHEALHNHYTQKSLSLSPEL

[5] = tested on: Human aortic endothelial cells (HAEC); test: TKPPR-conjugated fluorescent bead binding to HAEC, static; type: cell-based
Procedure: Human aortic endothelial cells (HAEC) from Biowhittaker were grown as monolayers in EGM-MV medium from Biowhittaker according to the supplier's instructions.
Briefly, a frozen cryovial of cells (500,000 cells in about 1 mL) was thawed for 2-3 minutes in a 37° C. water bath and cells were seeded into a T-75 flask coated with collagen I (commercially available) containing 15 mL EGM-MV of medium pre-equilibrated with 5% CO2 atmosphere. Cells were incubated in a standard tissue culture incubator at 37° C. HAEC were subcultured for up to 3 additional passages, using the following protocol:
For binding studies and characterization, pelleted cells were diluted to a concentration of 16,560 cells per mL, and 0.5 mL was seeded into each well of an 8-well chamber slide (Collagen I-coated, Becton Dickinson) to generate a seeding density of 12,000 cells/cm^2. Cells seeded into chamber slides were used for assays after 7 to 10 days, and were not further propagated.
TKPPR (see preparation described in the Example 1) was attached to red fluorescent carboxylate-modified FluoSpheres™ (Molecular Probes), which are 2.0 μm microspheres provided at 3.9×10^9 particles/mL of distilled water. 1.0 mg TKPPR was combined with 0.5 mLof 50 mM MES buffer (2-[N-Morpholino]ethanesulfonic acid, (commercially available), pH 6.0 and 0.2 mL FluoSpheres (7.8×10^8 spheres) in a 1.5 mL Eppendorf snap top, polypropylene centrifuge tube and rotated for 30 min at room temperature (RT). Then 2.8 mg EDAC (1-ethyl-3-(3-dimethylaminopropyl)carbodiimide hydrochloride, (commercially available) in 0.025 mL MES was added and the tube was rotated for 2 h at RT. Following the addition of 0.005 mL 1 N NaOH and 5.7 mg glycine in 0.025 mL MES, the tube was rotated for 30 min more at RT. The beads were then washed by employing three cycles of centrifugation at 14,000 rpm (20,800× g) in an Eppendorf 5417R centrifuge for 15 min, discarding the resulting supernatant, and resuspending in D-PBS. Storage was at 4° C. in 0.4 mL DPBS containing 0.05% NaN3 (final bead concentration was about 1.95×10^9/mL).
Final bead concentration was 1.95×10^7/mL. […]
Bead binding and localization was assessed at 200× magnification using the same microscopy equipment as described above. […] Finally, the processed images were inverted into black on a white background using Scion Image software (version beta 3b) and the integrated density was measured with the whole field selected.
The incubation time was decreased to 15 min on an orbital shaker, and the washes (3) were carried out using D-PBS containing 0.1% Tween 20 (Sigma). […] TKPPR-bead binding was quantitated in three fields, the other bead types were quantitated in one field only. Bound beads were quantitated by manual counting.

[6] = tested on: HAEC; test: TKPPR-bead binding to endothelial cells under flow; type: cell-based, human; conditions: flow 1.91 mL/min, 37° C.
Procedure: Circular 40 mm diameter glass coverslips (Bioptechs, Cat No. 40-1313-0319) were first derivative by dipping in 3-aminopropyltriethoxysilane (Pierce, Cat No. 80370ZZ), 20% in acetone (HPLC grade, Sigma Aldrich Cat No. 27,072-5), rinsed in acetone, and air-dried. After autoclaving, the derivatized coverslips were placed into 60 mm round, sterile culture dishes, one coverslip per dish. Five mL of a Collagen I solution (Becton Dickinson, Cat No. 40236), 41.6 μg/mL in 20 mM acetic acid (adjusted to pH 6.7 with NaOH), was added to each coverslip-containing dish. After 15 min, 0.25 mL of 11.5 mg/mL bis(sulfosuccinimidyl) suberate (Pierce, Cat No. 21580ZZ) was added to each dish and mixed in by swirling. After a 105-minute incubation, the dishes were drained and 5 mL of sterile TBS (20 mM Tris-HCl, pH 7.5, 140 mM NaCl) was added to each dish. […]
Coverslips containing confluent HAEC were mounted into a Bioptechs FCS2 parallel plate flow cell mounted on an Olympus IMT-2 inverted microscope. […] Wall shear stress T, in dynes/cm^2, was calculated using the equation (Lawrence et al., Blood 75:227-237, 1990): [formula]
Bead binding of equal numbers of red fluorescent beads conjugated with TKPPR and green fluorescent beads conjugated with glycine was monitored after increasing lengths of perfusion and variable lengths of subsequent washing with the same solution lacking microspheres.

C/C(=N\O)C(C)(C)NOCCNC(C)(C)/C(CCNC(=O)CCCCCC(=O)NCC(=O)N(CCC(=O)NCC(=O)N(CCC(=O)NCCOCCOCC(=O)N[C@H](C(=O)N[C@@H](CCCCN)C(=O)N1CCC[C@H]1C(=O)N1CCC[C@H]1C(=O)N[C@@H](CCCNC(=N)N)C(=O)O)[C@@H](C)O)CCC(=O)NCCOCCOCC(=O)N[C@H](C(=O)N[C@@H](CCCCN)C(=O)N1CCC[C@H]1C(=O)N1CCC[C@H]1C(=O)N[C@@H](CCCNC(=N)N)C(=O)O)[C@@H](C)O)CCC(=O)NCC(=O)N(CCC(=O)NCCOCCOCC(=O)N[C@H](C(=O)N[C@@H](CCCCN)C(=O)N1CCC[C@H]1C(=O)N1CCC[C@H]1C(=O)N[C@@H](CCCNC(=N)N)C(=O)O)[C@@H](C)O)CCC(=O)NCCOCCOCC(=O)N[C@H](C(=O)N[C@@H](CCCCN)C(=O)N1CCC[C@H]1C(=O)N1CCC[C@H]1C(=O)N[C@@H](CCCNC(=N)N)C(=O)O)[C@@H](C)O)=N/O [BRU-326]
IC50 [1]: 10 µM
fold more potent than the monomer [2]: 230 to 330 fold
IC50 ([2]; 250 pM 125I-VEGF165, 4° C., 2 hours): 0.13 µM
Kd [3]: 0.025 to 0.05 µM
inhibition of 125I-VEGF165 binding to KDR [4]: none

GRGDSP
Integrated density of bound beads ([5]; Experiment 1, 1.95×10^7 beads/mL, 30 min, HAEC monolayer): 28.59 arbitrary units
Number of bound beads ([5]; Experiment 2, 4.9×10^6 beads/mL, 15 min, manual counting, TKPPR average of three fields, others one field): 2

Glycine
Beads bound at 1.53 dynes/cm^2 [6]: 10
